Data from patent US12071423B2, “Processes and intermediate for the large-scale preparation of 2,4,6-trifluoro-N-[6-(1-methyl-piperidine-4-carbonyl)-pyridin-2-yl]-benzamide hemisuccinate, and preparation of 2,4,6-trifluoro-N-[6-(1-methyl-piperidine-4-carbonyl)-pyridin-2-yl]-benzamide acetate” (Eli Lilly and Company, priority 2019, dated 2024).
Structures can show the parent of a compound that is named as a salt. Where two headings read alike, the source gives them in different places.

Assays:
Type in all cases: physicochemical
[1] = Form and chemical stability studies of the intermediate
Source text: [drawing 6] which can be named as (6-amino-2-pyridyl)-(1-methyl-4-piperidyl)methanone dihydrate dihydrochloride. Preferably this compound is crystalline. (6-amino-2-pyridyl)-(1-methyl-4-piperidyl)methanone dihydrate dihydrochloride is particularly useful in the preparation of 2,4,6-trifluoro-N-[6-(1-methylpiperidine-4-carbonyl)-2-pyridyl]benzamide hemisuccinate, and processes which employ (6-amino-2-pyridyl)-(1-methyl-4-piperidyl)methanone dihydrate dihydrochloride may provide advantageous process characteristics, including but not limited to the purity of intermediate and/or final materials. (6-amino-2-pyridyl)-(1-methyl-4-piperidyl)methanone dihydrate dihydrochloride is believed to be a new stable hydrated form of 6-amino-2-pyridyl)-(1-methyl-4-piperidyl)methanone. The process to isolate (6-amino-2-pyridyl)-(1-methyl-4-piperidyl)methanone dihydrate dihydrochloride described herein provides improved impurity rejection and an improved controlled crystallization process. […] Use of this intermediate provides advantageously high purity product at expected yield.

[2] = Solubility in 10 mmol acetate, citrate or phosphate buffer (excess solid equilibrated at RT overnight, HPLC)
Protocol: Lasmiditan acetate was discovered to enable a desired dose target of about 50 mg in the minimal volume of less than or equal to about 1 mL, while at the same time achieving a desired target pH being close to neutral, and in addition being relatively isotonic and physically and chemically stable. […] For solubility determinations 10 mmol buffer is made with a respective acid and salt, and pH is adjusted by changing the acid/salt ratio. Excess solid is equilibrated at RT overnight, and solution concentration is analyzed by HPLC and solid was characterized by XRPD. In contrast, for lasmiditan acetate it was discovered that solubility of >50 mg/mL can be achieved, at close to neutral pH, without adjusting the pH.

[3] = Dissolution of lasmiditan acetate at 50 mg/mL: pH and tonicity of the solution; details: dissolution at 50 mg/mL
Protocol: (§1) Lasmiditan acetate enables the desired solubility to provide high concentration formulations having a less than or equal to about 1 mL dose volume, for the desired unit doses, which is critical for clinical applications such as use in available autoinjector devices. In addition, dissolution of lasmiditan acetate at 50 mg/mL results in close to neutral pH (pH approximately 6.8), is isotonic, and stable for at least 2 months.

[4] = Stability of lasmiditan acetate 50 mg/mL solution; details: dissolution at 50 mg/mL
Protocol: as §1

Q: For CN1CCC(C(=O)c2cccc(N)n2)CC1 [(6-amino-2-pyridyl)-(1-methyl-4-piperidyl)methanone dihydrate dihydrochloride], which “form and chemical stability” value [1] is on record?
A: generally stable

Q: With CC(=O)O.CN1CCC(C(=O)c2cccc(NC(=O)c3c(F)cc(F)cc3F)n2)CC1 [Lasmiditan Acetate, 2,4,6-trifluoro-N-[6-(1-methylpiperidine-4-carbonyl)-2-pyridyl]benzamide acetate] as the molecule, how does the “solubility compared with lasmiditan hemisuccinate salt” value [2] read?
A: significantly higher solubility

Q: And the solubility ([2]; 10 mmol acetate buffer, pH 3.69, aqueous buffer, thermodynamic from solid, Acetate buffer, pH (before) 3.69, free base eq., all added solute went into solution, read-out: Solubility (Free Base eq. mg/mL))?
A: > 441 mg/mL

Q: What about the solubility ([2]; 10 mmol acetate buffer, pH 4.05, aqueous buffer, thermodynamic from solid, Acetate buffer, pH (before) 4.05, free base eq., all added solute went into solution, read-out: Solubility (Free Base eq. mg/mL)) of the same molecule?
A: > 430 mg/mL

Q: What about the solubility ([2]; 10 mmol acetate buffer, pH 4.4, aqueous buffer, thermodynamic from solid, Acetate buffer, pH (before) 4.4, free base eq., all added solute went into solution, read-out: Solubility (Free Base eq. mg/mL)) of the same molecule?
A: > 412 mg/mL

Q: What about the solubility ([2]; 10 mmol acetate buffer, pH 5.09, aqueous buffer, thermodynamic from solid, Acetate buffer, pH (before) 5.09, free base eq., all added solute went into solution, read-out: Solubility (Free Base eq. mg/mL)) of the same molecule?
A: > 430 mg/mL

Q: What about the solubility ([2]; 10 mmol acetate buffer, pH 5.71, aqueous buffer, thermodynamic from solid, Acetate buffer, pH (before) 5.71, free base eq., all added solute went into solution, read-out: Solubility (Free Base eq. mg/mL)) of the same molecule?
A: > 486 mg/mL

Q: And the solubility ([2]; 10 mmol buffer (acetate, citrate or phosphate), pH 6.8, thermodynamic from solid, at close to neutral pH, without adjusting the pH, read-out: solubility)?
A: > 50 mg/mL

Q: What about the solubility ([2]; 10 mmol citrate buffer, pH 2.5, aqueous buffer, thermodynamic from solid, Citrate buffer, pH (before) 2.5, free base eq., all added solute went into solution, read-out: Solubility (Free Base eq. mg/mL)) of the same molecule?
A: > 300 mg/mL

Q: And the solubility ([2]; 10 mmol citrate buffer, pH 3.84, aqueous buffer, thermodynamic from solid, Citrate buffer, pH (before) 3.84, free base eq., all added solute went into solution, read-out: Solubility (Free Base eq. mg/mL))?
A: > 300 mg/mL

Q: And the solubility ([2]; 10 mmol citrate buffer, pH 4.99, aqueous buffer, thermodynamic from solid, Citrate buffer, pH (before) 4.99, free base eq., all added solute went into solution, read-out: Solubility (Free Base eq. mg/mL))?
A: > 300 mg/mL

Q: What about the solubility ([2]; 10 mmol citrate buffer, pH 5.96, aqueous buffer, thermodynamic from solid, Citrate buffer, pH (before) 5.96, free base eq., all added solute went into solution, read-out: Solubility (Free Base eq. mg/mL)) of the same molecule?
A: > 300 mg/mL

Q: What about the solubility ([2]; 10 mmol phosphate buffer, pH 8.24, aqueous buffer, thermodynamic from solid, Phosphate buffer, pH (before) 8.24, free base eq., all added solute went into solution, read-out: Solubility (Free Base eq. mg/mL)) of the same molecule?
A: > 300 mg/mL

Q: And the “pH (after)” value ([2]; Acetate buffer, pH (before) 3.69)?
A: 6.25

Q: What about the “pH (after)” value ([2]; Acetate buffer, pH (before) 4.05) of the same molecule?
A: 6.41

Q: What about the “pH (after)” value ([2]; Acetate buffer, pH (before) 4.4) of the same molecule?
A: 6.31

Q: And the “pH (after)” value ([2]; Acetate buffer, pH (before) 5.09)?
A: 6.50

Q: What about the “pH (after)” value ([2]; Acetate buffer, pH (before) 5.71) of the same molecule?
A: 6.56

Q: What about the “pH (after)” value ([2]; Citrate buffer, pH (before) 2.5) of the same molecule?
A: 5.60

Q: And the “pH (after)” value ([2]; Citrate buffer, pH (before) 3.84)?
A: 5.72

Q: And the “pH (after)” value ([2]; Citrate buffer, pH (before) 4.99)?
A: 6.23

Q: And the “pH (after)” value ([2]; Citrate buffer, pH (before) 5.96)?
A: 6.24

Q: And the “pH (after)” value ([2]; Phosphate buffer, pH (before) 8.24)?
A: 6.42

Q: What about the pH on dissolution [3] of the same molecule?
A: approximately 6.8

Q: And the tonicity of solution [3]?
A: isotonic

Q: And the stability of solution [4]?
A: at least 2 months

Q: Which “achieving >50 mg/mL solubility” value ([2]; at close to neutral pH) does the source give for CN1CCC(C(=O)c2cccc(NC(=O)c3c(F)cc(F)cc3F)n2)CC1 [lasmiditan hemisuccinate, 2,4,6-trifluoro-N-[6-(1-methylpiperidine-4-carbonyl)-2-pyridyl]benzamide hemisuccinate, reference compound] here?
A: difficult without using co-solvents
